Assay results: patent US20240197709A1, “POTENTIATING THE TUMOR-SELECTIVE EFFECTS OF NQO1-BIOACTIVATABLE AGENT BY USE OF CMET INHIBITOR” (The Trustees of Indiana University, priority 2022, published 2024)

What was measured:
[1] = test system: 53BP1 foci (DSBs) in A549 NSCLC; test: 53BP1 foci formation, A549; format: cell-based; settings: A549, sub-lethal β-lap 3 μM for 2 h, monitored 24 h
Method: FIG. 3D. Graphical representation of average 53BP1 foci formation per nucleus at indicated treatment conditions: criz (1 μM), β-lap (3 μM), and DIC separately or in combination.
FIG. 3E Graph showing quantification of DSB formation (% cells with ≥5 53BP1 foci) following exposure of A549 shSCR vs shMET cells to indicated agents for 2 h (in red arrow), washed out and monitored up to 24 h to determine DSB repair kinetics.

[2] = test system: cancers with NQO1; settings: average, most cancers with NQO1; cited from earlier work
[3] = test system: A549 NSCLC with transient MET knockdown (siMET); test: long-term survival, A549 transient MET knockdown; settings: A549, two different siRNAs
Method: Graph showing relative long-term survival studies in A549 NSCLC with transient MET knockdown (siMET) compared to siSCR control. β-lap was added±DIC (50 μM) for 2 h after RNAi transfection (48 h) with two different siRNA sequences.
Next, we investigated whether loss of cMET activity arising from genetic depletion of MET expression could enhance the therapeutic effect of β-lap at lower concentrations.

[4] = test system: pY1234-cMET (activated cMET) in the nucleus, A549; test: Western blots of nuclear versus cytoplasmic fractions; settings: A549, β-lap 3 μM and 6 μM for 2 h
Method: Images of Western blots of nuclear versus cytoplasmic fractions from A549 cells treated with vehicle (DMSO, 0.1%) control and indicated concentrations of β-lap±DIC (50 μM) for 2 h. Lamin B1 and tubulin were used as loading controls for nuclear and cytoplasmic fractions, respectively.
Bar graph depicting quantification of pY1234-cMET (activated cMET) in the nucleus at indicated treatment conditions.

[5] = test system: cellular hydrogen peroxide (H2O2) levels in A549 cells; test: ROS-Glo H2O2 Assay; format: cell-based; settings: A549, β-lap 3 μM, within 15 min, further increased at two hours
Method: FIG. 2-1A. […] Growth media was then replaced with fresh media containing β-lap (3 μM) alone, criz alone (1 μM) or combination±DIC (50 μM) and collected at 15 and 120 min to measure H2O2 production using the ROS-Glo™ H2O2 Assay from Promega (Madison, WI). The assay was performed in three biological replicates.
(§1) Next, we sought to investigate the mechanistic role of cMET in promoting resistance to ROS-induced DNA lesions caused by the futile redox cycling of β-lap with NQO1. […] In response to H2O2 stimulation, cMET can translocate into the nucleus where it interacts with PARP1 for activation to enhance the repair of ROS-induced DNA damage. […] Next we performed PARP1 immunoprecipitation studies to determine whether it associates with activated cMET in the nucleus following treatment with β-lap at increasing doses.

[6] = test system: pY1234-cMET/PARP1 nuclear interaction, A549; settings: A549, β-lap 3 μM, 2 h
[7] = test system: A549 shMET 3D spheroids; test: 3D spheroid growth and viability, A549 shMET; format: cell-based; settings: β-lap 3 μM
Method: (§2) FIG. 5A. Representative brightfield images of A549 shSCR versus shMET 3D spheroids treated with vehicle control (0.1% DMSO) or β-lap (3 μM, which is sub-lethal in A549 NSCLC cells in 2D long-term survival assays) imaged at indicated times to monitor microtumor spheroid growth. Scale bar=250 μm.
(§3) FIG. 5B. Graphical comparison of 3D spheroid (microtumor) growth of A549 shSCR vs shMET at indicated treatments over time relative to initial 3D spheroid area (day 1).
(§4) FIG. 5C. Quantification of 3D spheroid viability at day 10 (in panel A) using CellTiter-Glo® 3D Cell Viability Assay.
(§5) Studies have shown that drug sensitivity of cancer cells cultured in three-dimension (3D) more accurately predicts their sensitivity in vivo.30-31 Thus, we utilized 3D tumor spheroid growth of our isogenic A549 shSCR or shMET cancer cell lines to closely recapitulate the cell-cell interactions of human tumors32-33. After three days of spheroid formation, A549 shSCR and shMET microtumors were exposed to vehicle control (0.1% DMSO) or β-lap (3 μM, sub-lethal concentration in 2D culture for A549 parental line), and imaged over time for 3D spheroid tumor growth for comparison. […] Additionally, the viability of A549 shSCR versus shMET 3D spheroids treated with vehicle control and β-lap at day 10 was determined using CellTiter-Glo® 3D Viability Assay (FIG. 5C) for comparison. […]

[8] = test system: MIAPaCa2 NQO1−/− PDAC cell line; test: long-term survival, MIAPaCa2 NQO1 knock out; format: cell-based; settings: β-lap alone
From the text: Graph showing relative long-term survival plot of isogenic MIAPaCa2 NQO1+/+ versus MIAPaCa2 NQO1−/−PDAC cell lines treated with varying concentrations of β-lap alone.

[9] = test system: A549 NSCLC cells; test: long-term cell survival assay, A549; format: cell-based; settings: sub-lethal crizotinib (2 μM) 2 h pre-treatment, then criz ± β-lap 2 h, ~7 days, DER >1 = synergistic
Method: FIG. 1B. […] LC50 values were calculated from long-term cell survival graphs using GraphPad PRISM; ND denotes Not Determined even at the highest concentration presented. All error bars represent the mean±SEM. **** p<0.0001, *** p<0.001, ** p<0.01, *p<0.05.
FIG. 1C. […] LC50 values were calculated from long-term cell survival graphs using GraphPad PRISM; ND denotes Not Determined even at the highest concentration presented. All error bars represent the mean±SEM. **** p<0.0001, *** p<0.001, ** p<0.01, *p<0.05.

[10] = test system: pY1234-cMET / PARP1; test: PARP1 immunoprecipitation (co-IP); format: cell-based; settings: A549, β-lap 3 and 6 μM for 2 h
From the text: as §1

[11] = test system: A549 NQO1−/− cells; test: long-term cell survival, A549 NQO1 knock out; format: cell-based; settings: β-lap alone
Method: (§6) LC50 values were calculated from long-term cell survival graphs using GraphPad PRISM; ND denotes Not Determined even at the highest concentration presented. All error bars represent the mean±SEM. **** p<0.0001, *** p<0.001, ** p<0.01, *p<0.05.
FIG. 1F. […] LC50 values were calculated from long-term cell survival graphs using GraphPad PRISM; ND denotes Not Determined even at the highest concentration presented. All error bars represent the mean±SEM. **** p<0.0001, *** p<0.001, ** p<0.01, *p<0.05.

[12] = test system: A549 shMET cells; test: long-term survival, A549 shSCR vs shMET; format: cell-based; settings: β-lap 2 h
Method: as §6

[13] = test system: A549 shSCR 3D spheroids; test: 3D spheroid growth and viability, A549 shSCR; format: cell-based; settings: β-lap 3 μM
Method: as §2, §3, §4, §5

[14] = HPBCD formulation; cited from earlier work

CC1(C)CCC2=C(O1)c1ccccc1C(=O)C2=O [β-lap, β-Lapachone]
DSB formation and repair [1]: induced formation of DSBs that were easily repaired
LD50 [2]: 3.0 to 6.0 µM
sensitivity to β-lap compared to siSCR control [3]: sensitization
translocation of activated cMET (pY1234-cMET) into the nucleus [4]: greatly enhanced
relative amount of cellular H2O2 [5]: significantly increased
in situ interaction between activated cMET and PARP1 (PLA foci) [6]: enhanced in situ interaction
3D spheroid (microtumor) growth over time [7]: potentiated the lethal effect
3D spheroid viability at day 10 (CellTiter-Glo 3D) [7]: more hypersensitive
sensitivity after knocking out NQO1 [8]: more resistant
DERLC50 (dose-enhancement ratio) of β-lap [9]: 6.6
pY1234-cMET co-immunoprecipitated with PARP1 [10]: increasing levels of pY1234-cMET with PARP1
sensitivity after knocking out NQO1 [11]: more resistant
sensitivity to β-lap compared to shSCR control [12]: hypersensitivity
3D spheroid (microtumor) growth over time [13]: relatively negligible microtumor lethality
3D spheroid viability at day 10 (CellTiter-Glo 3D) [13]: no significant lethality
maximum-tolerated dose (MTD) [14]: about 25 mg/kg
